The target of this assay is T1, MDM2 (Homo sapiens, UniProt Q00987).
T1 construct: MDM2 (Abcam, ab167941)
The experiment in a line: fluorescence polarization competition with FITC-p53 peptide. Format: binding. The source says:
fluorescence polarization competition with FITC-p53 peptide on MDM2 | analysis of the interaction of N201 with MDM2 instead of with fluorescein isothiocyanate (FITC)–p53.
In general terms: Polarisation of emitted light reports the rotation of a fluorescent probe.

The structures appear in SMILES notation.

The term IC50 denotes the concentration that gives 50% inhibition. A low value points to greater potency.

T1 sequence (Q00987 whole entry): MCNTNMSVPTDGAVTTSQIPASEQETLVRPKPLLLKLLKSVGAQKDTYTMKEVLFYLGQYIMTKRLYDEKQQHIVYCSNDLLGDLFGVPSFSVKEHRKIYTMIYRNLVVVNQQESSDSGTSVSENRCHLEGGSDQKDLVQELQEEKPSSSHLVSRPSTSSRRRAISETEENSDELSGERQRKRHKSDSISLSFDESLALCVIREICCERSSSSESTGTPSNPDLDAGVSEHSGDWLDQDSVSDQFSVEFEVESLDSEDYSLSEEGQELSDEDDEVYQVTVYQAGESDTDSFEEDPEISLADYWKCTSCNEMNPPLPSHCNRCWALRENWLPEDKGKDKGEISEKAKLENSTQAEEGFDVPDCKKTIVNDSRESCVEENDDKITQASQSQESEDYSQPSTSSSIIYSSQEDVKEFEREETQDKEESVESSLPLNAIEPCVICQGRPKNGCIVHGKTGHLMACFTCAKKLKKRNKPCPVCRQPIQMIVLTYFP

For the molecule `COc1ccc(C2=NC(c3ccc(Cl)cc3)C(c3ccc(Cl)cc3)N2C(=O)N2CCN(CCO)CC2)c(OC(C)C)c1` (centres unmarked) [N201], the IC50 amounted to 130 nM.

In turn, `COc1ccc(C2=NC(c3ccc(Cl)cc3)C(c3ccc(Cl)cc3)N2C(=O)N2CCN(CCO[C@@H]3O[C@H](CO)[C@H](O)[C@H](O)[C@H]3O)CC2)c(OC(C)C)c1` (some centres unmarked) [N201-gal] registered a concentration for half-maximal inhibition (IC50) of 200 nM.

For the origin of these results see PMC12484856, “A Self-Assembling Senolytic Prodrug with Enhanced Bioavailability and Selective Activation for Targeting Senescent Retinal Pigment Epithelium” (Biomaterials Research, 2025).
